# Test results published in US10662171B2, “Antidiabetic bicyclic compounds” (Merck Sharp & Dohme Corp., priority 2014, dated 2020).
# Molecular target: T1, human GPR40 (Homo sapiens, UniProt O14842)
# T1 construct: expressed in transfected cells; host or cells: HEK cells stably expressing the aequorin reporter
# Assay: Inositol Phosphate Turnover (IP1) Assay 2
# Assay type: cell-based
# Settings: HEK cells stably expressing human GPR40; compound acoustically transferred; 60 minutes at 37 degrees
# Method: Human and mouse GPR40 stable cell-lines were generated in CHO cells stably expressing NFAT BLA (Beta-lactamase). A human GPR40 stable cell-line was generated in HEK cells stably expressing the aequorin expressing reporter. The expression plasmids were transfected using lipofectamine (Life Technologies) following manufacturer's instructions. Stable cell-lines were generated following drug selection.
# The assay is performed in 384-well format. HEK cells stably expressing human GPR40 are plated at 15,000 cells per well in growth medium (DMEM/10% fetal calf serum). Cell plates are then incubated 16 hours at 37 degrees in a 5% CO2 incubator.
# Measurement of Inositol Phosphate Turnover (IP1) is performed using the CisBio IP-One kit (Part number 62IPAPEB). After the 16 hour incubation, the cells are washed with HEPES buffer and 10 ul of stimulation buffer (prepared as described in the kit) is added to each well. In a separate plate, compounds are diluted in DMSO (400-fold over the final concentration in the assay well) and 25 nl is acoustically transferred to the appropriate well in the assay cell plate. The plates were then incubated for 60 minutes at 37 degrees. 10 ul of detection buffer (also prepared as described in the IP-One kit) is added to each well and the plates are incubated for 60 minutes in the dark. The plates are then read in a Perkin Elmer EnVision or equivalent reader able to measure FRET. Fluorescent ratio of emission at 665 and 620 nm is then converted to IP1 concentration by back calculating from an IP1 standard curve prepared at the time of the assay.
# T1 sequence (O14842 whole entry): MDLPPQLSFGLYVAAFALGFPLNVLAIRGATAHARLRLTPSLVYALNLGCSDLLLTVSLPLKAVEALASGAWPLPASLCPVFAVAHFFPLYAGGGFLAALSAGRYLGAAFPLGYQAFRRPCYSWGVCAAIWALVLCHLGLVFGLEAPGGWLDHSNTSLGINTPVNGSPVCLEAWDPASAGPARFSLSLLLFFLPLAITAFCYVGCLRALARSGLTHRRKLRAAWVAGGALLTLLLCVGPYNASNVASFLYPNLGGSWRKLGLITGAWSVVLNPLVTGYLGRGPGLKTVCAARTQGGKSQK
row,EC50,Structure (SMILES)
1,0.76 nM,"COc1cc(-c2ccc(C3Cc4cc([C@H](C5CC5)[C@H](C)C(=O)O)ccc4CO3)cc2)c(F)cn1 (single isomer, unassigned) [Example 39A]"
2,5.2 nM,"COc1cc(-c2ccc(C3Cc4cc([C@H](C5CC5)[C@H](C)C(=O)O)ccc4CO3)cc2)c(F)cn1 (single isomer, unassigned) [Example 39B]"
3,54 nM,"C[C@H](C(=O)O)[C@H](c1ccc2c(c1)CC(C1CCN(c3ncccc3C(F)(F)F)CC1)OC2)C1CC1 (stereo partly drawn) [Example 40, (2S,3R)-3-cyclopropyl-2-methyl-3-(3-(1-(3-(trifluoromethyl)pyridin-2-yl)piperidin-4-yl)isochroman-6-yl)propanoic acid]"

# Further lines, the molecule ahead of its results:
row,Structure (SMILES),EC50
1,"COc1cc(-c2ccc(C3CCc4ccc(C(C5CC5)C(C)C(=O)O)cc4C3)c(F)c2)ccn1 (single isomer, unassigned) [Example 37]",0.42 nM
2,"COc1ccc(F)c(-c2ccc([C@@H]3Cc4cc([C@H](C5CC5)[C@H](C)C(=O)O)ccc4CO3)cc2)c1 [Example 21, (2S,3R)-3-cyclopropyl-3-((S)-3-(2′-fluoro-5′-methoxy-[1,1′-biphenyl]-4-yl)isochroman-6-yl)-2-methylpropanoic acid]",0.21 nM
3,"COc1ccc(F)c(-c2ccc([C@H]3Cc4cc([C@H](C5CC5)[C@H](C)C(=O)O)ccc4CO3)cc2)c1 [Example 22, (2S,3R)-3-cyclopropyl-3-((R)-3-(2′-fluoro-5′-methoxy-1,1′-biphenyl-4-yl)isochroman-6-yl)-2-methylpropanoic acid]",0.5 nM
4,"COc1cc(-c2ccc([C@@H]3Cc4cc([C@H](C5CC5)[C@H](C)C(=O)O)ccc4CO3)c(F)c2)ccn1 [Example 38A, (2S,3R)-3-cyclopropyl-3-((S)-3-(2-fluoro-4-(2-methoxypyridin-4-yl)phenyl)isochroman-6-yl)-2-methylpropanoic acid]",4.2 nM
5,"COc1cc(-c2ccc([C@H]3Cc4cc([C@H](C5CC5)[C@H](C)C(=O)O)ccc4CO3)c(F)c2)ccn1 [Example 38B, (2S,3R)-3-cyclopropyl-3-((R)-3-(2-fluoro-4-(2-methoxy-pyridin-4-yl)phenyl)isochroman-6-yl)-2-methylpropanoic acid]",24.5 nM
